Experimental data as given in patent publication US20250186403A1 (ARIZONA BOARD OF REGENTS ON BEHALF OF THE UNIVERSITY OF …, priority 2022, published 2025).
Where “and” joins values, the source holds several entries; their conditions need not be identical. Identical values can stand only once.

Assays:
[1] = test system: Cga split-cfGFP-Prp8 intein protein; assay: Split GFP-Prp8 intein splicing assay (SDS-PAGE); assay type: biochemical, Cryptococcus gattii; settings: vs DMSO control, 30 μM protein, 24 h
Description: TCEP is added to a final concentration of 100 µM and incubated for 24 h. The substrate Nano-Glo luciferase (Promega) was added, and the resulting luminescence was read. IC50 was calculated using GraphPad prism. […] TCEP was added to a concentration of 1 mM and incubated for 24 h. From this reaction mixture, 10 μl was mixed with an equal volume of 2×SDA-PAGE loading dye and loaded onto 12% SDS-PAGE gel without boiling the sample. The gel was scanned with UV using Chemidoc (Bio Rad), and band intensities were quantified using Image Lab software. […] Cells were harvested and washed in PBS, lysed with bead lyser, and centrifuged at 10,000 rpm. An equal quantity of protein (50 μg) from each treatment was loaded onto 12% SDS-PAGE and blotted onto the NC membrane, blocked with 5% skimmed milk. The membrane was probed with anti-prp8 intein rabbit polyclonal sera, followed by goat anti-rabbit HRP antibody. Signals were developed using a chemiluminescent kit. The density of the spliced intein bands (˜20 kDa) were quantified using Image lab software. A band at ˜130 kDa is uncharacterized, as explained below. NC: nitrocellulose. Abs: absorbance […]
TCEP to a final concentration of 1 mM was added to induce splicing and further incubated at RT for 24 h. […] The band densities were quantified using image lab software.

Cne cells = assay: Checkerboard assay with known antifungals; assay type: cell-based, Cryptococcus neoformans
Description: After adding Cne cells, the plates were incubated for 48 h. Well contents were mixed by pipette, and absorbance was read at 630 nm. […] Based on the FIC, the combinatorial effects are decided as in Table 2.

[2] = Cytotoxicity (Cell Counting Kit-8); assay type: cell-based, murine; settings: mouse, PMA-differentiated RAW 264.7 macrophage cells, PMA-differentiated RAW 264.7 cells
Description: FIGS. 4A, 4B, and 4C show in vitro and in vivo toxicity. […] A549 and RAW 264.7 cells were grown in 96 well plates till 70% confluent. RAW 264.7 cells were differentiated into macrophages using PMA. […] The cell viability was estimated by Cell Counting Kit-8 (GlpBio, CA, USA), and absorbance was read at 450 nm using microplate reader Synergy H1 (BioTek). CC50 was calculated by GraphPad prism. […] Abs: absorbance. […] Bodyweight and other parameters were monitored daily (Table 3).
Cells were seeded in 96 well plates at 1.5×10^4 cells/well of 96 well plates in DMEM media and incubated at a CO2 incubator at 37° C. for 24 h. For differentiation to macrophages, the media was replaced with fresh media containing 100 nM PMA and further incubated for 48 h in a CO2 incubator.

[3] = test system: recombinant Cne-Prp8 intein; assay: Thermal shift assay; assay type: binding, Cryptococcus neoformans
Description: The Tm values were calculated by Thermal shift software. […] The assay was repeated three times. […]
Each treatment was done in quadruplicate. The mixture was incubated at room temperature for an hour before transferring to the QuantStudio 5 real-time PCR system (Applied Biosystems) and run with an increasing temperature from 20° C. to 90° C. The temperature at which there was 50% of the peak fluorescence (50% denaturation) was considered as Tm. The analysis was done using the Thermal Shift Assay software (Thermo Fischer Scientific). A graph was drawn using the GraphPad prism Version 9.1.0 after normalizing the fluorescent values. The treatment groups were compared with Student's t-test.

SMILES: CNc1ccc2oc(C[C@H]3O[C@@]4(CC[C@H]3C)O[C@H]([C@H](C)C(=O)c3ccc[nH]3)[C@H](C)C[C@H]4C)nc2c1C(=O)O [CMN, calcimycin]
- splicing of split GFP-Prp8 intein [1]: inhibited with CMN dose-dependently
- MIC (Cne cells; Cryptococcus neoformans, 48 h, read-out: MIC Alone): 1.31 µg/mL
- MIC Comb (Cne cells; combination CMN + 5-Fluorocytosine, well D2): 0.65 µg/mL
- MIC Comb (Cne cells; combination CMN + Amphotericin B, well E6): 0.33 µg/mL
- MIC Comb (Cne cells; combination CMN + Itraconazole, well E4): 0.33 µg/mL
- MIC Comb (Cne cells; combination CMN + Voriconazole, well D4): 0.65 µg/mL
- CC50 at 48 h [2]: 8.6 µM and 4.5 µg/mL
- ΔTm difference between CMN and DMSO ([3]; 1.2 µM CMN): 3 °C
- Tm of CnePrp8 intein ([3]; with 1.2 µM CMN (DMSO control 50.8±0.2)): 53.8±0.2 °C
